Legend:
[1] = system: cavernous nerves; assay: NIRF imaging of cavernous nerves after intracrural ICG injection in rats; format: in vivo
[2] = cited from earlier work

CC1(C)C(/C=C/C=C/C=C/C=C2\N(CCCCS(=O)(=O)O)c3ccc4ccccc4c3C2(C)C)=[N+](CCCCS(=O)(=O)[O-])c2ccc3ccccc3c21 [ICG, indocyanine green]
time post-injection of highest fluorescence intensity ([1]; NIRF imaging): 18 and at 24 | fluorescence of the cavernous nerves at longer post-injection periods ([1]; e.g. 30 days post-injection): not detectable | metabolism in the body ([2]; after intravenous injection): not metabolized in the body | route of excretion ([2]; after intravenous injection): excreted exclusively by the liver | reabsorption from the intestine / enterohepatic recirculation ([2]; in vivo): not reabsorbed from the intestine and does not undergo enterohepatic recirculation

Reference: patent US10265419B2, “Intraoperative determination of nerve location” (Novadaq Technologies ULC, priority 2005, dated 2019)
